Experimental findings from publication PMC6270821, “ROS-Mediated Cytotoxic Effect of Copper(II) Hydrazone Complexes against Human Glioma Cells” (Molecules, 2014) are described below.

The assay concerns pUC 19 plasmid DNA. The assay is described as follows: Agarose gel electrophoresis of supercoiled plasmid DNA. The settings on record: 100 µM, Tris-HCl pH 7.20, 37 °C, 24 h. More on the design: species or system Escherichia coli. As to the method: Studies of interactions between the compounds under study and supercoiled plasmid DNA by agarose gel electrophoresis were carried out. Thus, 136 ng of purified plasmid DNA-pUC 19 from Escherichia coli (Sigma-Aldrich Brasil, São Paulo, Brazil) were incubated with compounds 1, 2 and cisplatin at 100 µM in Tris-HCl buffer (NaCl 50 mM, Tris-HCl 5 mM, pH = 7.20). The mixture was incubated at 37 °C for 24 h. Thereafter, the reactions were quenched by adding 5 µL of the loading buffer solution (50 mM Tris, pH 7.20, 0.01% bromophenol blue, 50% glycerol, and 250 mM EDTA). The samples were analyzed by 1% agarose gel electrophoresis in 0.5 × TBE buffer for 1 h 40 min at […]. The gel was stained after electrophoresis in 0.5× TBE buffer with 2.5 µg·mL^−1 ethidium bromide for 15 min and visualized by UV light.

Structures are written as SMILES.

On to `CC(=O)NN=C(C)c1ccccn1.[Cl][Cu][Cl]` [compound 1, [dichloro(2-acetylpyridineacetyl-hydrazone)copper(II)]], for which the “alteration in the electrophoretic mobility of pUC 19 plasmid DNA” value is listed as “no alteration in the electrophoretic mobility”.

On to `CC(=O)NN=C(c1ccccc1)c1ccccn1.[Cl][Cu][Cl]` [compound 2, [dichloro(2-benzoylpyridineacetylhydrazone)copper(II)]], for which the “alteration in the electrophoretic mobility of pUC 19 plasmid DNA” value was “no alteration in the electrophoretic mobility”.
